Source: patent US20170298056A1, “SMALL MOLECULE INHIBITORS OF HIV-1 ENTRY AND METHODS OF USE THEREOF” (Dana-Farber Cancer Institute, Inc., priority 2014, published 2017)

Key:
[1] = tested on: JR-FL and KB9 Env chimeras; test: Viral infection assay, JR-FL/KB9 Env chimeras; type: cell-based, HIV-1
Method: (§1) Production of recombinant HIV-1 expressing luciferase. […] After 48 hours, the supernatant was collected, buffered with 50 mM Hepes pH 7.4 (final concentration) and centrifuged for 5 minutes at 750×g and 4° C. The virus-containing supernatant was used directly or frozen at −80° C.
(§2) Viral infection assay. Each test compound was serially diluted in DMSO in a 96-well B&W isoplate (PerkinElmer, Boston, Mass.) using an HP D300 Digital Dispenser, to a final volume of 450 nl. DMSO was used as a control. Viruses pseudotyped with a specific Env were added to each well and incubated briefly at room temperature. Cf2Th-CD4/CCR5 cells were detached with StemPro Accutase Cell Dissociation Reagent (Invitrogen, cat #A11105-01), washed once, and 5000 cells were added to each well. […] Following incubation, the medium was aspirated and cells were lysed with 30 μl of Passive Lysis Buffer (Promega, cat #E1941). The activity of the firefly luciferase, which was used as a reporter protein in the system, was measured with a Centro LB 960 luminometer (Berthold Technologies, Oak Ridge, Tenn.). One hundred microliters of assay buffer (15 mM MgSO4, 15 mM KH2PO4/K2HPO4 pH 7.8, 1 mM ATP and 1 mM DTT) was injected to each well, followed by a 50 μl injection of 1 mM Dluciferin potassium salt (BD Pharmingen, San Jose, Calif.); luminescence was measured for 2 sec. Infection of PBMC was done as above, but 20,000-40,000 cells/well and viruses concentrated by ultracentrifugation were used. After four hours of incubation with viruses, the cells were centrifuged at 200×g for 6 minutes at 4° C., resuspended in 100 μl RPMI-PBMC medium and incubated at 37° C. for an additional 36-40 hours (total 40-44 hours). Supernatant was removed after centrifugation at 400×g for 5 minutes and cells were processed to detect luciferase activity, as described above.

A-MLV = test: Infection of human PBMC by control A-MLV; type: cell-based, amphotropic murine leukemia virus; conditions: range of tested concentrations
Method: Peripheral blood mononuclear cells (PBMC). Human blood was purchased from Research Blood Components, who obtained a consent firm from each donor, according to the American Association of Blood Banks guidelines, PBMC were isolated from the whole blood using a Ficoll-Paque gradient (Ficoll-Paque PLUS, Amersham Biosciences) and activated at concentration of 10^6 live cells/ml for 3 days in RPMI-PBMC medium (RPMI-1640 supplemented with 20% FBS, 10% IL-2 (Hemagen, Columbia, Md.), 100 μg/ml primocin (InvivoGen, San Diego, Calif.)) with 4 μg/ml phytohemagglutinin (Sigma-Aldrich, St. Louis, Mo.). In some cases, cells were frozen, thawed and activated prior to the assay.
Viral infection assay. Each test compound was serially diluted in DMSO in a 96-well B&W isoplate (PerkinElmer, Boston, Mass.) using an HP D300 Digital Dispenser, to a final volume of 450 nl. DMSO was used as a control. […] The activity of the firefly luciferase, which was used as a reporter protein in the system, was measured with a Centro LB 960 luminometer (Berthold Technologies, Oak Ridge, Tenn.). One hundred microliters of assay buffer (15 mM MgSO4, 15 mM KH2PO4/K2HPO4 pH 7.8, 1 mM ATP and 1 mM DTT) was injected to each well, followed by a 50 μl injection of 1 mM Dluciferin potassium salt (BD Pharmingen, San Jose, Calif.); luminescence was measured for 2 sec. […]

HIV-1ADA = test: Viral infection assay, ADA Env (wild type, ΔV1V2, CD4-independent N197S); type: cell-based; conditions: for Fold change: mutant/wild-type IC50
Method: To study CD4-independent infection, the full-length HIV-1ADA N197S Env mutant was used. This Env is an ADA-HXBc2 chimera with an N197S change. The control “wild-type” ADA Env used in these experiments is also an ADA-HXBc2 chimera.
as §1, §2

HIV-1JR-FL = test: Washout experiment, HIV-1JR-FL infection; type: cell-based; conditions: washing out before infection
Method: For washout experiments, different concentrations of 18A were incubated with the recombinant viruses at 37° C. for 20 minutes. The viruses were laid on a 20% sucrose cushion and ultracentrifuged at 30,000 RPM in an SW55 rotor for 1.5 hours at 4° C. After the supernatant was aspirated, viruses were suspended in 500-1000 μl medium and 90 μl of the virus suspension was used to infect 5000 Cf2Th-CD4/CCR5 cells (5 replicates). The cells were incubated for 48 hours and processed as described above. Sensitivity of recombinant viruses to cold inactivation was measured.

[2] = Env with KB9 gp120 and JR-FL gp41

With `O=C(N/N=C/c1ccc(O)cc1)Nc1cccc2nsnc12` [Compound 18A] the sensitivity to inhibition ([1]; Env with JR-FL gp120 and KB9 gp41) was “nearly as sensitive as the parental JR-FL Env”, the “fold more sensitive than parental KB9 Env” value [1, 2] was 2 fold and the “fold resistance relative to JR-FL Env” value [1, 2] was “about 5 fold”. For the same compound, the sensitivity to inhibition ([1]; major variable loops of JR-FL gp120 grafted onto KB9 Env) was “nearly as sensitive to 18A inhibition as JR-FL”, the “effect on A-MLV infection” value (A-MLV) was “No significant effect” and the IC50 (HIV-1ADA; ADA Env wild type) was 12.8 ± 1.5 µM. The Fold change (HIV-1ADA; ADA Env wild type) was 1, the IC50 (HIV-1ADA; ADA Env ΔV1V2) was 10.8 ± 2 µM and the Fold change (HIV-1ADA; ADA Env ΔV1V2) was 0.8. For the same compound, the “infection of CD4-negative, CCR5-expressing cells” value (HIV-1ADA; CD4-independent HIV-ADA N197S) was “protected CD4-negative, CCR5-expressing cells from infection”, the “entry into CD4/CCR5-expressing cells” value (HIV-1ADA; wild-type HIV-1ADA and HIV-1ADA N197S) was “blocked by 18A with a similar profile of inhibition” and the “reversibility of inhibition of HIV-1 infection” value (HIV-1JR-FL) was “reversible”.
